According to patent publication US20230192617A1, “AZABICYCLIC(THIO)AMIDES AS FUNGICIDAL COMPOUNDS” (Bayer CropScience Aktiengesellschaft, priority 2020, published 2023):

Experiments:
Alternaria alternata = Alternaria alternata in vitro cell test; format: cell-based; conditions: 120 h, 20 ppm of active ingredient, liquid culture, 5 days incubation, spectrometric measurement of mycelium growth, read-out: efficacy (inhibition of fungal growth)
Procedure, shortened: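 Spectrometric readout of mycelial growth after 5-day incubation gauged compound effects on spore germination and growth of A. alternata in liquid medium. Compounds were delivered in DMSO at ≤1% final. Absorbance was compared with untreated controls to give inhibition.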

Botrytis cinerea [1] = assay: In vivo preventive test on Botrytis cinerea (grey mould); conditions: 500 ppm of active ingredient, preventive spray on gherkin or cabbage, evaluated 4 to 5 days after inoculation, read-out: efficacy
Procedure, shortened: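 Preventive spray on cabbage or gherkin seedlings, with compound formulated in DMSO/acetone/Tween 80 and water-diluted, preceded spore inoculation by 24 hours. Cabbage was held 4 to 5 days at 20° C., 100% relative humidity; gherkin 4 to 5 days at 17° C., 90% relative humidity.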

Botrytis cinerea [2] = assay: B-11. Botrytis cinerea in vitro cell test; format: cell-based; conditions: 144 h, 20 ppm of active ingredient, 6 days incubation, liquid culture, absorbance, read-out: efficacy (inhibition of fungal growth)
Procedure, shortened: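 B. cinerea spores were grown in liquid culture with compound (DMSO ≤1% final). Mycelium growth was measured spectrometrically after 6 days, with inhibition taken as absorbance relative to untreated control wells.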

Septoria tritici = assay: B-9. Septoria tritici in vitro cell test; format: cell-based; conditions: Zymoseptoria tritici, 168 h; 20 ppm of active ingredient; 7 days incubation; liquid culture, absorbance; read-out: efficacy (inhibition of fungal growth)
Procedure, shortened: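 Compounds from DMSO stocks (final DMSO ≤1%) were added to liquid medium containing S. tritici spores to test inhibition of germination and mycelial growth. After 7 days, mycelium growth was read spectrometrically and inhibition derived from absorbance versus fungicide-free control wells.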

Pyrenophora teres [3] = assay: B-10. Pyrenophora teres in vitro cell test; format: cell-based; conditions: 144 h, 20 ppm of active ingredient, 6 days incubation, liquid culture, absorbance, read-out: efficacy (inhibition of fungal growth)
Procedure, shortened: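 Liquid-culture assay on a P. teres spore suspension with compounds added to the medium from DMSO solutions, final DMSO ≤1%. Mycelium growth read spectrometrically after 6 days. Inhibition calculated from absorbance against untreated control wells.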

[4] = test system: Colletotrichum lindemuthianum; assay: In vivo preventive test on Colletotrichum lindemuthianum (leaf spot on bean); conditions: 168 h, 500 ppm of active ingredient, preventive spray on bean, evaluated 7 days after inoculation, read-out: efficacy
Procedure, shortened: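 Young bean plants sprayed with compound in DMSO/acetone/Tween 80 diluted in water; solvent-only controls. Inoculated 24 h later with C. lindemuthianum spore suspension, then kept 24 h at 20 °C/100% RH and 6 days at 20 °C/90% RH.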

Sphaerotheca fuliginea = assay: In vivo preventive test on Sphaerotheca fuliginea (powdery mildew on cucurbits); conditions: Podosphaera fuliginea, 192 h; 500 ppm of active ingredient; preventive spray on gherkin; evaluated 8 days after inoculation; read-out: efficacy
Procedure, shortened: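 This is a preventive spray test on gherkin seedlings, with compound formulated in DMSO/acetone/Tween 80 in water and solvent-only controls. Spore inoculation followed one day after treatment. Incubation lasted 8 days at 20 °C, 70–80% RH.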

Alternaria brassicae = assay: In vivo preventive test on Alternaria brassicae (leaf spot on radish or cabbage); conditions: 500 ppm of active ingredient, preventive spray on radish or cabbage, evaluated 3 to 4 days after inoculation, read-out: efficacy
Procedure, shortened: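 Protective spray on young radish or cabbage: actives in water diluted from DMSO/acetone/Tween 80, with solvent-only controls. Leaves were challenged after 24 h with a spore suspension, and plants were held at 100% RH, 20 °C for 3 to 4 days.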

[5] = Measurement of Log P values by HPLC on reversed phase columns (EEC directive 79/831 Annex V.A8); format: physicochemical; conditions: reversed phase HPLC column, method [a]: LC-UV, acidic range, 0.1% formic acid in water and acetonitrile as eluent
Procedure, shortened: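 Log P derived from retention on reversed-phase columns (EEC directive 79/831 Annex V.A8), LC-UV, acetonitrile gradient 10% to 95% against water containing 0.1% formic acid, 0.001 M ammonium acetate, or 0.1% phosphoric acid; several values per method separated by "+".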

Pyrenophora teres [6] = assay: In vivo preventive test on Pyrenophora teres (net blotch on barley); conditions: 240 h, 500 ppm of active ingredient, preventive spray on barley, evaluated 10 days after inoculation, read-out: efficacy
Procedure, shortened: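 Net blotch spores were sprayed onto barley leaves one day after foliar treatment with water-diluted DMSO/acetone/Tween 80 formulations (solvent-only controls). Plants were kept at 20° C: first 48 hours at 100% relative humidity, then 8 days at 70-80%.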

[7] = test system: Colletotrichum lindemuthianum; assay: B-8. Colletotrichum lindemuthianum in vitro cell test; format: cell-based; conditions: 144 h, 20 ppm of active ingredient, 6 days incubation, liquid culture, absorbance, read-out: efficacy (inhibition of fungal growth)
Procedure, shortened: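 Liquid-culture germination/growth test: compounds in ≤1% final DMSO were added to spore-containing medium. Fungal growth was quantified spectrophotometrically after 6 days of incubation and expressed as inhibition versus untreated controls.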

SMILES	chromatographic logP [5]	inhibition at 20 ppm (Alternaria alternata) [%]	pest or weed control at 500 ppm (Botrytis cinerea [1]) [%]	inhibition at 20 ppm (Botrytis cinerea [2]) [%]	inhibition at 20 ppm (Septoria tritici) [%]	inhibition at 20 ppm (Pyrenophora teres [3]) [%]	pest or weed control at 500 ppm [4] [%]	pest or weed control at 500 ppm (Sphaerotheca fuliginea) [%]	pest or weed control at 500 ppm (Alternaria brassicae) [%]	pest or weed control at 500 ppm (Pyrenophora teres [6]) [%]	inhibition at 20 ppm [7] [%]
O=C(NC[C@H](F)c1ccc(Cl)cc1Cl)c1c(Oc2cccc(C(F)(F)F)c2)nnc2ccccc12 (racemic) [I-219]	4.55	80 to 89	90 to 100	90 to 100	80 to 89	70 to 79	90 to 100	90 to 100	90 to 100	90 to 100	
Cc1cc(Cl)ccc1C(F)(F)CNC(=O)c1c(Oc2cccc(C(F)(F)F)c2)nnc2c1COCC2 [I-125]	3.85	90 to 100	90 to 100	90 to 100	90 to 100	90 to 100	80 to 89	90 to 100	90 to 100	70 to 79	
Cc1ccc(CCNC(=O)c2c(Oc3cccc(C(F)(F)F)c3)cnc3c2CCC3)c(C)c1 [I-157]	4.23	90 to 100		90 to 100	90 to 100	90 to 100	90 to 100	90 to 100	90 to 100	90 to 100	90 to 100

More lines, main results first:

chromatographic logP [5]	SMILES	inhibition at 20 ppm (Alternaria alternata) [%]	pest or weed control at 500 ppm (Botrytis cinerea [1]) [%]	inhibition at 20 ppm (Botrytis cinerea [2]) [%]	inhibition at 20 ppm (Septoria tritici) [%]	inhibition at 20 ppm (Pyrenophora teres [3]) [%]	pest or weed control at 500 ppm [4] [%]	pest or weed control at 500 ppm (Sphaerotheca fuliginea) [%]	pest or weed control at 500 ppm (Alternaria brassicae) [%]	pest or weed control at 500 ppm (Pyrenophora teres [6]) [%]	inhibition at 20 ppm [7] [%]
4.11	Cc1cc(Br)ccc1C(F)(F)CNC(=O)c1c(Oc2cccc(Cl)c2F)nnc2c1CCC2 [I-154]	90 to 100		90 to 100	90 to 100	90 to 100	90 to 100	90 to 100	90 to 100	90 to 100	90 to 100
4.11	Cc1cc(Cl)ccc1C(F)(F)CNC(=O)c1c(Oc2cccc(C(F)(F)F)c2)nnc2c1CCC2 [I-164]	90 to 100		90 to 100	90 to 100	90 to 100	90 to 100	90 to 100	90 to 100	90 to 100	90 to 100
4.17	O=C(NCC(F)c1ccc(Cl)cc1Cl)c1c(Oc2cccc(C3CC3)c2F)nnc2c1CCCC2 (stereo not drawn) [I-184]	90 to 100		90 to 100	90 to 100	90 to 100	90 to 100	90 to 100	90 to 100	90 to 100	90 to 100
